We go through eight molecules from ChEMBL document CHEMBL1201862, “PubChem BioAssay data set” (2004).

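48-hour exposure; five concentrations; linearly interpolated endpoints. GI50 is the concentration that inhibits growth by half.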 Active and inactive are the calls of the source. Rule as the data show it: active = GI50 up to about 1.1 µM and inactive = higher.

Holding throughout (test): DTP human tumour cell line panel, 48 h
Assay [1] has as its system MDA-MB-231.
Assay [2] has as its system HOP-62.
Assay [3] concerns CAKI-1.
Assay [4] deals with LOX IMVI.
Assay [5] deals with MCF7.
Assay [6] concerns Hs-578T.
The test system of assay [7] is A498.
Assay [8] concerns SF-268.
The test system of assay [9] is SR.
Assay [10] deals with HT-29.
Assay [11] relates to T47D.
Assay [12] deals with MDA-N.
For assay [13], the system named is NCI-H522.
For assay [14], the system named is TK-10.
Assay [15] deals with MOLT-4.
The test system of assay [16] is SW-620.
The test system of assay [17] is HCC 2998.
Assay [18] relates to RXF 393.
The test system of assay [19] is SF-539.
Assay [20] deals with NCI-H23.

As to `CNC1Cc2c[nH]c3cccc(c23)C12C=C(C)C(=O)O2` (stereo not drawn), the GI50 in assay [1], in assay [2], in assay [3], in assay [4], in assay [5] and in assay [6] was > 100 µM (inactive) each time. Moreover, the GI50 – broadly, the concentration giving 50% growth inhibition – in assay [7] is > 100 µM (inactive); in [8], > 100 µM (inactive); in assay [9], 88.5 µM (inactive); in assay [10], > 100 µM (inactive); in assay [11], > 100 µM (inactive); in [12], > 100 µM (inactive). The GI50 in [13], in assay [14], in [15], in [16], in assay [17] and in assay [18] was > 100 µM (inactive) throughout. Also, the GI50 in assay [19] and in [20] was > 100 µM (inactive) in each case.
Take `O=C(CN1CCCCC1)CC(O)(C(F)(F)F)C(F)(F)F`: the GI50 was > 100 µM (inactive) in [1]; > 100 µM (inactive) in assay [3]; > 100 µM (inactive) in [4]; > 100 µM (inactive) in assay [5]; 95.9 µM (inactive) in assay [6]; > 100 µM (inactive) in [7]. Moreover, the GI50 in assay [9], in [10], in assay [11], in [12], in [13] and in assay [14] was > 100 µM (inactive) in each case. Moreover, the GI50 in [16], in assay [17], in [18], in assay [19] and in assay [20] was > 100 µM (inactive) in each case.
Take `COC(=O)NC1(NC(=O)OC)NC(=O)c2cc(OC)c(OC)c(OC)c2N1`: the GI50 in assay [1] is 36.2 µM (inactive); in assay [2], 21.1 µM (inactive); in [3], 63.8 µM (inactive); in assay [5] it was 30.3 µM (inactive); in assay [6], 13.3 µM (inactive); in [7] it was 32.2 µM (inactive). The GI50 is 28.1 µM (inactive) in assay [8]; 17.3 µM (inactive) in [9]; 36.9 µM (inactive) in [10]; 43.5 µM (inactive) in assay [11]; 3.15 µM (inactive) in [12]; 6.98 µM (inactive) in [13]. In addition, the GI50 was 38 µM (inactive) in assay [14]; 63.2 µM (inactive) in assay [15]; 18.2 µM (inactive) in [16]; 9.14 µM (inactive) in assay [17]; 23.6 µM (inactive) in [19]; 32.7 µM (inactive) in assay [20].
For `Cc1cc(-c2ccc(C(=O)C(c3ccccc3)(c3ccccc3)c3ccccc3)[nH]2)on1`, the GI50 in assay [1] was 19.7 µM (inactive); in assay [2] it was 17.1 µM (inactive); in assay [3] it was 33.1 µM (inactive); in [4], 19.5 µM (inactive); in [5], 18.2 µM (inactive); in assay [6], 19.2 µM (inactive). For the same molecule, the GI50 was 37.1 µM (inactive) in assay [7]; 18.7 µM (inactive) in [8]; 2.17 µM (inactive) in assay [9]; 11.4 µM (inactive) in [10]; 37.8 µM (inactive) in [11]; 16.6 µM (inactive) in [12]. Besides, the GI50 in [15] was 21.8 µM (inactive); in assay [16], 19.8 µM (inactive); in [17] it was 11.2 µM (inactive); in assay [18] it was 2.2 µM (inactive); in assay [19], 29.7 µM (inactive); in assay [20], 15 µM (inactive).
Regarding `Cc1csc2[n+]1C(=O)/C(=C\c1ccc([N+](=O)[O-])cc1)S2`, the GI50 in assay [1] was 27.3 µM (inactive); in assay [2], 28.5 µM (inactive); in assay [3] it was 25.2 µM (inactive); in assay [4], 22.5 µM (inactive); in assay [5], 32.7 µM (inactive); in assay [6], 25.6 µM (inactive). Further, the GI50 was 22.7 µM (inactive) in assay [7]; 20.3 µM (inactive) in assay [8]; 32.5 µM (inactive) in assay [9]; 23.9 µM (inactive) in [10]; 21.2 µM (inactive) in assay [11]; 27.8 µM (inactive) in assay [12]. In addition, the GI50 is 25.2 µM (inactive) in assay [14]; 29.5 µM (inactive) in [15]; 40.8 µM (inactive) in assay [16]; 21.6 µM (inactive) in [17]; 29 µM (inactive) in assay [18]; 36.1 µM (inactive) in assay [19]. Further, the GI50 in assay [20] is 18.7 µM (inactive).
With `S=C(N/N=C(/c1ccccc1)c1ccccn1)N1CCCCC1`, the 50% growth inhibitory concentration (GI50) was 0.0273 µM (active) in assay [1]; 0.0785 µM (active) in assay [2]; 0.143 µM (active) in assay [3]; 0.0425 µM (active) in [5]; 0.237 µM (active) in assay [6]; 0.407 µM (active) in assay [7]. For the same molecule, the GI50 in assay [9] is < 0.0166 µM (active); in assay [10] it was < 0.016 µM (active); in [11], 0.0927 µM (active); in assay [12], < 0.038 µM (active); in assay [13], < 0.0344 µM (active); in assay [14], 0.114 µM (active). For the same molecule, the GI50 was < 0.0135 µM (active) in assay [15]; < 0.0226 µM (active) in [16]; 0.219 µM (active) in assay [17]; 1.28 µM (inactive) in assay [18]; 0.424 µM (active) in assay [19]; 0.0459 µM (active) in assay [20].
With `C=C1C(=O)C=C[C@]2(C)CC[C@H]3C(=C)C(=O)O[C@@H]3[C@@H]12`, the GI50 is 4.08 µM (inactive) in assay [1]; 2.48 µM (inactive) in assay [2]; 2.22 µM (inactive) in assay [3]; 1.8 µM (inactive) in [4]; 0.738 µM (active) in assay [5]; 4.1 µM (inactive) in [6]. Further, the GI50 in [7] is 3.52 µM (inactive); in assay [8], 3.15 µM (inactive); in assay [9], 1.79 µM (inactive); in assay [10] it was 1.56 µM (inactive); in assay [11], 2.22 µM (inactive); in assay [12], 1.88 µM (inactive). Besides, the GI50 was 0.753 µM (active) in [13]; 0.419 µM (active) in assay [14]; 0.52 µM (active) in [15]; 0.813 µM (active) in assay [16]; 1.45 µM (inactive) in assay [18]; 0.562 µM (active) in assay [19]. Besides, in assay [20], the GI50 is 2.63 µM (inactive).
Turning to `Nc1nc(S)c2c(N)n[nH]c2c1C(=O)Nc1ccccc1`, the GI50 in [1], in assay [3], in assay [4], in assay [5], in [6] and in assay [7] was > 100 µM (inactive) each time. Moreover, the GI50 in assay [8] was > 100 µM (inactive); in [9], 13.9 µM (inactive); in assay [10] it was > 100 µM (inactive); in assay [11], > 100 µM (inactive); in assay [12], 50.2 µM (inactive); in assay [13], > 100 µM (inactive). The GI50 in assay [14], in [15], in assay [16], in assay [17], in assay [18] and in assay [19] was > 100 µM (inactive) throughout. Besides, the GI50 in [20] was > 100 µM (inactive).
